Test results as given in patent US7001608B2, “Artificial synapse chip interface for electronic prosthetic retina” (The Board of Trustees of the Lealand Stanford Junior …, priority 2001, dated 2006).

Experiment: Gramicidin D conductance change in lipid bilayer across silicon nitride aperture
Type: biochemical
Details: 5 to 20 μl of 2 mg/ml gD in ethanol to each bath; within minutes; capacitance remained constant; ethanol alone no effect
Description: Lipid bilayers were formed by the method of Montal and Mueller (1972). In practicing the Langmuir-Blodgett technique, one raises two lipid monolayers across an aperture, allowing the lipids to align their hydrophobic tail portions across the aperture so as to form a lipid bilayer. Because of the hydrophobic nature of the lipid tails, in order to form stable bilayers the surface of a BSP must also be hydrophobic. If the substrate is hydrophobic, the lipids can smoothly transition from coating the substrate to spanning the aperture. To reverse the wetting properties of the naturally hydrophilic silicon nitride, the silicon nitride was coated with an alkylsilane (octyltrichlorosilane). Application of this coating was quite simple and very effective. It was not found to be possible to form a bilayer with untreated devices. Use of longer carbon chain silanes or alternative materials to make the surface even more hydrophobic would further increase bilayer stability.
For smaller apertures, it was more difficult to observe the capacitance change over the background. In this case, membrane-bound proteins that affect the electrical properties of the bilayer, such as carriers and ion channels, offered the best proof of the formation of a bilayer. The ion channel peptide Gramicidin D (gD), was chosen for ease of use and large conductance change. […]

For Gramicidin D [gD], the “conductance of the bilayer” value was “dramatically increased”.
